Laboratory results: patent US20220387350A1, “CANNABIDIVARIN PREPARATIONS FOR USE AS A MEDICAMENT” (GW Research Limited, priority 2019, published 2022)
Where “and” joins values, the source holds several entries; their conditions need not be identical. Identical values can stand only once.

Assays:
[1] = Autofluorescence excitation scan (Ensight multimodal plate reader); format: physicochemical; conditions: 100 mM; for excitation peak point (first, lower-wavelength peak) / excitation peak point (second, higher-wavelength peak) / fluorescence intensity at first excitation peak / fluorescence intensity at second excitation peak: ethanol as vehicle
Method: (§1) Botanically derived purified CBDV (BOT) and Synthetic CBDV (SYN) were tested in duplicates at five concentrations of 0.1 mM, 0.5 mM, 1 mM, 50 mM and 100 mM in 100% DMSO or 100% Ethanol.
(§2) 200 μL of each sample or buffer were added into microplates in duplicate. Measurement has been performed on the Ensight multimodal plate reader (Perkin Elmer).
An excitation scan was used to detect the excitation peak for each test substance. The excitation scan was set from 230 to 380 nm and below the emission wavelength of 400 nm. The excitation scan was also set from 230 to 420 nm and below the emission wavelength of 440 nm. In both cases, a step increment of 2 nm was used for these scans.
Based on these analyses, the peaks of excitation wavelengths for the two tentative emission wavelengths were determined and used to identify the optimal excitation wavelength/s.

[2] = Autofluorescence emission scan (Ensight multimodal plate reader); format: physicochemical; conditions: 100 mM
Method: as §1, §2
In order to confirm the emission peak of the test substance, an emission scan was performed using the excitation peaks identified after the excitation scan. The […] was set to start for botanically derived purified CBDV and synthetic CBDV at 20 nm above the tentative excitation values using a step increment of 2 nm. Wavelengths up to 800 nm were scanned for emission.
The wavelength giving the maximum emission for the samples was defined as the optimal emission wavelength for the chosen excitation wavelength.

[3] = test system: sub-chronic PCP-induced deficit in novel object recognition; assay: Novel object recognition (NOR) test after sub-chronic PCP, animal model of schizophrenia; format: in vivo, rat (female hooded-Lister)
Description: The effect of PCP in the novel object recognition (NOR) test is a model of visual recognition memory deficits similar to those observed in schizophrenia. The atypical antipsychotics, clozapine and risperidone, can attenuate the deficit. The study was designed to determine if botanically derived purified CBDV and/or synthetic CBDV could attenuate the deficits in novel object recognition caused by administration of PCP.
Female hooded-Lister rats were used for this experiment. Rats were housed in groups of 5 under standard laboratory conditions under a 12 hr light: dark cycle, with lights on at 0700 hr. Testing was carried out in the light phase. Rats were randomly assigned to two treatment groups and treated with vehicle, n=15 (distilled water, i.p.) or Phencyclidine hydrochloride (PCP), n=75 (2 mg/kg, i.p. twice daily for 7-days). PCP was dissolved in distilled water. This was followed by a 7-day wash out period before the rats were tested following acute treatment with […], risperidone or vehicle. […]
Following the 3 minute habituation period, the rats are given two 3 minute trials (T1 and T2) which were separated by a 1 minute inter-trial interval in the home cage during which the objects were changed. Behavior in all trials was recorded on video for subsequent blind scoring. […]
The exploration time(s) of each object (A, B, familiar and novel) in each trial were recorded using two stopwatches and the following factors were calculated: total exploration time of both objects in the acquisition trial, total exploration time of both objects in the retention trial. Habituation of exploratory activity included the exploration time, as measured by the number of lines crossed, for both trials.
All data were assessed for normality using D'Agostino and Pearson normality test. Data non-normally distributed were analyzed using Kruskal-Wallis followed by planned comparisons with Dunn's correction. Normally distributed data were analyzed using one-way ANOVA followed by planned comparisons with Sidak's correction. […]

[4] = cited from earlier work
[5] = emission wavelength set at 400 nm
[6] = emission wavelength set at 440 nm
[7] = DMSO as vehicle, excitation wavelength set at 328 nm
[8] = DMSO as vehicle, excitation wavelength set at 334 nm
[9] = DMSO as vehicle, excitation wavelength set at 344 nm
[10] = ethanol as vehicle, excitation wavelength set at 326 nm
[11] = ethanol as vehicle, excitation wavelength set at 340 nm

## C=C(C)[C@@H]1CCC(C)=C[C@H]1c1c(O)cc(CCC)cc1O [synthetic CBDV, Cannabidivarin]
[1]; [5]
  excitation peak point (first, lower-wavelength peak): 282 nm
  excitation peak point (second, higher-wavelength peak): 324 nm
  fluorescence intensity at first excitation peak: 139797 au
  fluorescence intensity at second excitation peak: 123100 au
[1]; [6]
  excitation peak point (first, lower-wavelength peak): 280 nm
  excitation peak point (second, higher-wavelength peak): 326 nm
  fluorescence intensity at first excitation peak: 39433 au
  fluorescence intensity at second excitation peak: 41443 au
[1]; pure DMSO as vehicle, emission wavelength set at 400 nm
  excitation peak points: 282 nm and 326 nm
[2]; [7]
  emission peak point: 394 nm
  fluorescence intensity at emission peak: 264597 au
[2]; [8]
  emission peak point: 392 nm
  fluorescence intensity at emission peak: 201880 au
[2]; [9]
  emission peak point: 390 nm
  fluorescence intensity at emission peak: 158071 au
[2]; [10]
  emission peak point: 390 nm
  fluorescence intensity at emission peak: 67541 au
[2]; [11]
  emission peak wavelength: 378 nm
  fluorescence intensity at peak: 29009 au
[3]; 70 kg human, rat dose x 0.16 x 70
  human daily amount of CBDV corresponding to the rat MED: 224 mg/day
[3]; rat dose multiplied by 0.16 (FDA dose conversion guidance)
  human equivalent dose of the rat MED: 3.2 mg/kg/day
[3]; rats, 2-20 mg/kg i.p., 60 min ppt, n=8-10 per group
  minimal effective dose (MED) attenuating sub-chronic PCP-induced deficit in novel object recognition: 20 mg/kg

## C=C(C)[C@@H]1CCC(C)=C[C@H]1c1c(O)cc(CCC)cc1O [CBDV, 2-[(1R,6R)-3-Methyl-6-(1-methylethenyl)-2-cyclohexen-1-yl]-5-propyl-1,3-benzenediol]
[4]; organic solvents
  solubility in organic solvents: soluble
[4]; water
  solubility in water: insoluble
